Consider one compound from patent US12440495B2, “Combination therapy for treatment of myeloproliferative neoplasms” (Incyte Corporation, priority 2020, dated 2025).

Assay [1] has as its system SET-2 cells. The assay is described as follows: SET-2 xenograft model.
The test system of assay [2] is myelofibrosis. The assay is described as follows: Clinical efficacy in myelofibrosis participants (NCT04279847). In kind it is in vivo, human. On the procedure: This is a Phase 1, open-label, 2-part study of Compound 1 as monotherapy in participants with relapsed or refractory myelofibrosis (for further details see “Safety and Tolerability Study of INCB057643 in Participants With Myelofibrosis”, ClinicalTrials.gov Identifier: NCT04279847, which is incorporated herein by reference in its entirety). INCB057643 is also referred to as Compound 1 in the present disclosure. […] Participants will receive 4 mg QD of Compound 1 on a continuous basis.
A first participant and a second participant had relapsed myelofibrosis which was treated with Compound 1 monotherapy. A third participant was being treated with single-agent ruxolitinib but having suboptimal responses.

With `CN1C(=O)C(C)(C)Oc2c(-c3cn(C)c(=O)c4[nH]ccc34)cc(S(C)(=O)=O)cc21` [Compound 1, 2,2,4-trimethyl-8-(6-methyl-7-oxo-6,7-dihydro-1H-pyrrolo[2,3-c]pyridin-4-yl)-6-(methylsulfonyl)-2H-1,4-benzoxazin-3(4H)-one], the tumor growth inhibition result in assay [1] (ruxolitinib 30 mg/kg BID, Compound 1 10 mg/kg QD, or both, oral, 14 days) is reported as “significantly inhibited tumor growth”. Moreover, the “Fa (tumor growth inhibition level), SET-2” value in assay [1] (table head: ruxolitinib 60 mg/kg BID, Compound 1 10 mg/kg QD, combination) amounted to 0.24. Besides, in assay [2] (first participant, monotherapy 12 mg QD, nadir vs baseline), the “spleen length reduction by spleen palpation” value worked out at 92.5%. Further, the clinical outcome in assay [2] (second participant, monotherapy 8 mg QD, on study 24 days) was “only disease progression”.
